Test results from patent US5274098A, “Amidinophenylalanine derivatives, process for their preparation, their use and compositions containing them” (Behringwerke Aktiengesellschaft, priority 1991, dated 1993).

Assays:
[1] = system: thrombin; conditions: cited from earlier work
[2] = molecular target: T1, human thrombin (Homo sapiens, UniProt P00734); assay: KI value for thrombin (Lineweaver and Burk, Chromozym TH); assay type: biochemical; conditions: inhibitor conc. approx. IC50, Chromozym TH 0.7-45×10^-5 mol/l, read-out: Thrombin inhibition KI
T1 construct: human thrombin
Description: Determination of the KI value for thrombin:
The KI values for the compounds investigated were determined using the abovementioned thrombin solution. To do this, thrombin was incubated with a concentration of inhibitor which approximately corresponded to the IC50 value determined in the abovementioned test.

[3] = system: thrombin; assay: Activity with respect to inhibition of thrombin / antithrombotic activity, general statements; assay type: biochemical; conditions: relative to the glycine compound
Excerpt: The inhibitors according to the invention are examined according to various criteria to assess their activity, preferably these are the determination of the Ki value, the IC50 value or the partial thromboplastin time (PTT) in vivo and in vitro.

[4] = molecular target: T1, human thrombin; assay: IC50 value of the thrombin inhibition (Chromozym TH, pNA release at 405 nm); assay type: biochemical; conditions: 0.1M tris-HCl/0.15 M NaCl pH 8.2, 1 h preincubation, substrate Chromozym TH 5×10^-5 M
Description: Determination of the IC50 value of the thrombin inhibition:
The compounds were incubated with human thrombin in 0.1M tris-HCl buffer/0.15 M NaCl pH 8.2 in increasing concentrations.

Structure (SMILES) | type of thrombin inhibition (prior art, in words) [1] | Ki [2] [nM] | exceeds the activity of the glycine compound by a factor [3] | IC50 [4] [nM]
CC1CNc2c(cccc2S(=O)(=O)N[C@@H](CCCNC(=N)N)C(=O)N2CC[C@@H](C)C[C@@H]2C(=O)O)C1 (stereo partly shown) [MD 805, monohydrate] | competitive specific thrombin inhibitor |  |  | 
N=C(N)c1ccc(C[C@@H](NC(=O)NNS(=O)(=O)c2ccc3ccccc3c2)C(=O)N2CCCCC2)cc1 [Nas--AGly--Aph--Pip, Beta-naphthylsulfonyl-azaglycyl-D-p-amidinophenylalanylpiperidide] |  | 2.6 | 5 | 1.3
Cc1c(C)c(S(=O)(=O)NNC(=O)N[C@H](Cc2ccc(C(=N)N)cc2)C(=O)N2CCCCC2)c(C)c2c1OC(C)(C)CC2 [Pmc--AGly--Aph--Pip, Pmc-Azaglycyl-D-p-amidinophenylalanylpiperidide] |  | 0.092 |  | 
Cc1c(C)c(S(=O)(=O)NCC(=O)NC(Cc2ccc(C(=N)N)cc2)C(=O)N2CCCCC2)c(C)c2c1OC(C)(C)CC2 (stereo not shown) [Pmc--Gly--Aph--Pip, reference compound] |  | 1.3 |  | 1.4
